From patent US10053463B2 (Janssen Pharmaceutica NV, priority 2013, dated 2018)

Target: P2X7 (Homo sapiens (Human), UniProt Q99572)
Assay: P2X7 antagonism in human peripheral blood mononuclear cells (PBMCs), IL-1β release
Format: cell-based
Conditions: P2X7; Table 3 (additional runs); 10 μM compound; read-out: PBMC 10 μM (% control)
Procedure: P2X7 Antagonism in Human Peripheral Blood Mononuclear Cells (PBMCs) and Human Whole Blood.
Human blood was collected using a blood donor program. PBMCs were isolated from blood using a Ficoll density gradient technique. Briefly, blood was laid on Ficoll solution and centrifuged at RT for 20 minutes at 2000 rpm. The buffy layer (between red blood cells and plasma) was carefully collected by aspiration, washed with PBS and centrifuged again at 1500 rpm for 15 minutes. The resulting cell pellet was washed and plated on 96 well-plates for experiments. For the Human Whole Blood experiments, 150 μl of human blood was platted on 96 well-plates. Lipopolysaccharide (LPS) (30 ng/ml) was added to each well and incubated for 1 hour. Test compounds were then added and incubated for 30 minutes. The P2X7 agonist, 2′(3′)-O-(4-benzoylbenzoyl) adenosine 5′-triphosphate (Bz-ATP) was then added at a final concentration of 0.5 mM (PBMC) or 1 mM (blood). Cells were incubated for an additional 1.5 hours. At that point, supernatant was collected and stored for IL-1β assay using manufacturer's protocol for enzyme-linked immunosorbent assay (ELISA). Data was expressed as percent control, where control is defined as the difference in IL-1β release in LPS+Bz-ATP samples and LPS only samples. Data was plotted as response (% control) versus concentration to generate IC50 values. […] Data are analyzed and graphed on Graphpad Prism 5. For analysis, each concentration point is averaged from triplicate values and the averaged values are plotted on Graphpad Prism.

P2X7, sequence (Q99572 whole entry): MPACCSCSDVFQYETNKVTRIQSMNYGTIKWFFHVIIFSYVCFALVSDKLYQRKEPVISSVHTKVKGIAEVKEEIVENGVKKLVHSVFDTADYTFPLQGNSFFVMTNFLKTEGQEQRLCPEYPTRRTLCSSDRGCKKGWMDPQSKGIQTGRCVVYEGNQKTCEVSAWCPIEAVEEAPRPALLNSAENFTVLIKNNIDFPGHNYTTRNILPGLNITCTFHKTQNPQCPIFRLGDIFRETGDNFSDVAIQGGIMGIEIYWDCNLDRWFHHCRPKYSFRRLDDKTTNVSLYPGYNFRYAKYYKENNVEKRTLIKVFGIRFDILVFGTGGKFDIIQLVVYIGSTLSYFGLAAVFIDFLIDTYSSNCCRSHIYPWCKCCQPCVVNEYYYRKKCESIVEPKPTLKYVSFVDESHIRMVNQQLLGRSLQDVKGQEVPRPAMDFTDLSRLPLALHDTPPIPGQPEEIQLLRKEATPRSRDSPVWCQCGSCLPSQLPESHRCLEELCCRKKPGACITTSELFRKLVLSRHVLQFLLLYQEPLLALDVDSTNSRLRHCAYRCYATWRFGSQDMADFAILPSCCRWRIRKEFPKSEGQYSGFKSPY

Structure (SMILES) | remaining activity at 10 µM
CC(c1cccc(C(F)(F)F)c1Cl)N1CCn2c(nnc2-c2cnccn2)C1=O (racemic) [Example 4, (±)7-{1-[2-Chloro-3-(trifluoromethyl)phenyl]ethyl}-3-pyrazin-2-yl-6,7-dihydro[1,2,4]triazolo[4,3-a]pyrazin-8(5H)-one] | 46%
CC1Cn2c(nnc2-c2cnccn2)C(=O)N1Cc1cccc(Cl)c1Cl (racemic) [Example 11, (±)-7-(2,3-Dichlorobenzyl)-6-methyl-3-pyrazin-2-yl-6,7-dihydro[1,2,4]triazolo[4,3-a]pyrazin-8(5H)-one] | -0.4%
C[C@H](c1ccccc1)N1C(=O)c2nnc(-c3cnccn3)n2C[C@@H]1C (relative stereo) [Example 94, (6S)-6-Methyl-7[(1R*)-1-phenylethyl]-3-pyrazin-2-yl-6,7-dihydro[1,2,4]triazolo[4,3-a]pyrazin-8(5H)-one] | -1.3%
C[C@H]1Cn2c(nnc2-c2cnccn2)C(=O)N1[C@@H](C)c1ccccc1 (relative stereo) [Example 95, (6S)-6-Methyl-7-[(1S*)-1-phenylethyl]-3-pyrazin-2-yl-6,7-dihydro[1,2,4]triazolo[4,3-a]pyrazin-8(5H)-one] | 3.1%
O=C1c2nnc(-c3ccc(F)cc3)n2CCN1Cc1cccc(C(F)(F)F)c1Cl [Example 1, 7-[2-Chloro-3-(trifluoromethyl)benzyl]-3-(4-fluorophenyl)-6,7-dihydro[1,2,4]triazolo[4,3-a]pyrazin-8(5H)-one] | 25.4%
O=C1c2nnc(-c3cnccn3)n2CCN1Cc1c(Cl)cccc1Cl [Example 5, 7-(2,6-Dichlorobenzyl)-3-pyrazin-2-yl-6,7-dihydro[1,2,4]triazolo[4,3-a]pyrazin-8(5H)-one] | 8.8%
O=C1c2nnc(-c3cnccn3)n2CCN1Cc1cccc(F)c1F [Example 6, 7-(2,3-Difluorobenzyl)-3-pyrazin-2-yl-6,7-dihydro[1,2,4]triazolo[4,3-a]pyrazin-8(5H)-one] | 23.7%
CS(=O)(=O)c1cc(Cl)ccc1CN1CCn2c(nnc2-c2cnccn2)C1=O [Example 7, 7-[4-Chloro-2-(methylsulfonyl)benzyl]-3-pyrazin-2-yl-6,7-dihydro[1,2,4]triazolo[4,3-a]pyrazin-8(5H)-one] | 8.8%
O=C1c2nnc(-c3ccccn3)n2CCN1Cc1cccc(Cl)c1Cl [Example 8, 7-(2,3-Dichlorobenzyl)-3-pyridin-2-yl-6,7-dihydro[1,2,4]triazolo[4,3-a]pyrazin-8(5H)-one] | -10.6%
O=C1c2nnc(-c3ccccn3)n2CCN1Cc1cccc(C(F)(F)F)c1Cl [Example 9, 7-[2-Chloro-3-(trifluoromethyl)benzyl]-3-pyridin-2-yl-6,7-dihydro[1,2,4]triazolo[4,3-a]pyrazin-8(5H)-one] | -3.1%
Cc1c(CN2CCn3c(nnc3-c3ccccn3)C2=O)cccc1C(F)(F)F [Example 10, 7-[2-Methyl-3-(trifluoromethyl)benzyl]-3-pyridin-2-yl-6,7-dihydro[1,2,4]triazolo[4,3-a]pyrazin-8(5H)-one] | 59.3%
C[C@H]1Cn2c(nnc2-c2cnccn2)C(=O)N1Cc1cccc(Cl)c1Cl [Example 13, (6S)-7-(2,3-Dichlorobenzyl)-6-methyl-3-pyrazin-2-yl-6,7-dihydro[1,2,4]triazolo[4,3-a]pyrazin-8(5H)-one] | 8.2%
C[C@H]1Cn2c(nnc2-c2ncco2)C(=O)N1Cc1cccc(C(F)(F)F)c1Cl [Example 20, (6S)-7-[2-Chloro-3-(trifluoromethyl)benzyl]-6-methyl-3-(1,3-oxazol-2-yl)-6,7-dihydro[1,2,4]triazolo[4,3-a]pyrazin-8(5H)-one] | 4.7%
C[C@H]1Cn2c(nnc2-c2cocn2)C(=O)N1Cc1cccc(C(F)(F)F)c1Cl [Example 21, (6S)-7-[2-Chloro-3-(trifluoromethyl)benzyl]-6-methyl-3-(1,3-oxazol-4-yl)-6,7-dihydro[1,2,4]triazolo[4,3-a]pyrazin-8(5H)-one] | -3.4%
C[C@H]1Cn2c(nnc2-c2cnco2)C(=O)N1Cc1cccc(C(F)(F)F)c1Cl [Example 22, (6S)-7-[2-Chloro-3-(trifluoromethyl)benzyl]-6-methyl-3-(1,3-oxazol-5-yl)-6,7-dihydro[1,2,4]triazolo[4,3-a]pyrazin-8(5H)-one] | -3.9%

Other lines, results leading:

remaining activity at 10 µM | Structure (SMILES)
2.5% | CC1Cn2c(nnc2-c2cnccn2)C(=O)N1Cc1cccc(C(F)(F)F)c1Cl (racemic) [Example 14, (±)-7-[2-Chloro-3-(trifluoromethyl)benzyl]-6-methyl-3-pyrazin-2-yl-6,7-dihydro[1,2,4]triazolo[4,3-a]pyrazin-8(5H)-one]
-1% | O=C1c2nnc(-c3cnccn3)n2CC(C2CC2)N1Cc1cccc(C(F)(F)F)c1Cl (racemic) [Example 61, (±)-7-[2-Chloro-3-(trifluoromethyl)benzyl]-6-cyclopropyl-3-pyrazin-2-yl-6,7-dihydro[1,2,4]triazolo[4,3-a]pyrazin-8(5H)-one]
-0.4% | O=C1c2nnc(-c3ncccn3)n2CC(C2CC2)N1Cc1cccc(C(F)(F)F)c1Cl (racemic) [Example 64, (±)-7-[2-Chloro-3-(trifluoromethyl)benzyl]-6-cyclopropyl-3-pyrimidin-2-yl-6,7-dihydro[1,2,4]triazolo[4,3-a]pyrazin-8(5H)-one]
6.9% | O=C1c2nnc(-c3cccnc3)n2CC(C2CC2)N1Cc1cccc(C(F)(F)F)c1Cl (racemic) [Example 67, (±)-7-[2-Chloro-3-(trifluoromethyl)benzyl]-6-cyclopropyl-3-pyridin-3-yl-6,7-dihydro[1,2,4]triazolo[4,3-a]pyrazin-8(5H)-one]
1.6% | O=C1c2nnc(-c3cc[nH]n3)n2CC(C2CC2)N1Cc1cccc(C(F)(F)F)c1Cl (racemic) [Example 68, (±)-7-[2-Chloro-3-(trifluoromethyl)benzyl]-6-cyclopropyl-3-(1H-pyrazol-3-yl)-6,7-dihydro[1,2,4]triazolo[4,3-a]pyrazin-8(5H)-one]
20.8% | O=C1c2nnc(-c3ccc(F)cn3)n2CC(C2CC2)N1Cc1cccc(C(F)(F)F)c1Cl (racemic) [Example 69, (±)-7-[2-Chloro-3-(trifluoromethyl)benzyl]-6-cyclopropyl-3-(5-fluoropyridin-2-yl)-6,7-dihydro[1,2,4]triazolo[4,3-a]pyrazin-8(5H)-one]
9.1% | O=C1c2nnc(-c3ncc(F)cn3)n2CC(C2CC2)N1Cc1cccc(C(F)(F)F)c1Cl (racemic) [Example 70, (±)-7-[2-Chloro-3-(trifluoromethyl)benzyl]-6-cyclopropyl-3-(5-fluoropyrimidin-2-yl)-6,7-dihydro[1,2,4]triazolo[4,3-a]pyrazin-8(5H)-one]
4.1% | C[C@@H]1Cn2c(nnc2-c2cnccn2)C(=O)N1Cc1cccc(C(F)(F)F)c1Cl [Example 15, (6R)-7-[2-Chloro-3-(trifluoromethyl)benzyl]-6-methyl-3-pyrazin-2-yl-6,7-dihydro[1,2,4]triazolo[4,3-a]pyrazin-8(5H)-one]
8.4% | C[C@H]1Cn2c(nnc2-c2cnccn2)C(=O)N1Cc1cccc(C(F)(F)F)c1Cl [Example 16, (6S)-7-[2-Chloro-3-(trifluoromethyl)benzyl]-6-methyl-3-pyrazin-2-yl-6,7-dihydro[1,2,4]triazolo[4,3-a]pyrazin-8(5H)-one]
2% | C[C@H]1Cn2c(nnc2-c2ccc(F)cc2)C(=O)N1Cc1cccc(C(F)(F)F)c1Cl [Example 17, (6S)-7-[2-Chloro-3-(trifluoromethyl)benzyl]-3-(4-fluorophenyl)-6-methyl-6,7-dihydro[1,2,4]triazolo[4,3-a]pyrazin-8(5H)-one]
-6.2% | C[C@H]1Cn2c(nnc2-c2ccccn2)C(=O)N1Cc1cccc(C(F)(F)F)c1Cl [Example 18, (6S)-7-[2-Chloro-3-(trifluoromethyl)benzyl]-6-methyl-3-pyridin-2-yl-6,7-dihydro[1,2,4]triazolo[4,3-a]pyrazin-8(5H)-one]
-9.5% | Cc1cnc(-c2nnc3n2C[C@H](C)N(Cc2cccc(C(F)(F)F)c2Cl)C3=O)cn1 [Example 19, (6S)-7-[2-Chloro-3-(trifluoromethyl)benzyl]-6-methyl-3-(5-methylpyrazin-2-yl)-6,7-dihydro[1,2,4]triazolo[4,3-a]pyrazin-8(5H)-one]
-7% | C[C@H]1Cn2c(nnc2-c2ccn(C)n2)C(=O)N1Cc1cccc(C(F)(F)F)c1Cl [Example 23, (6S)-7-[2-Chloro-3-(trifluoromethyl)benzyl]-6-methyl-3-(1-methyl-1H-pyrazol-3-yl)-6,7-dihydro[1,2,4]triazolo[4,3-a]pyrazin-8(5H)-one]

Same assay, conditions: Table 2; 10 μM compound; IL-1β release, LPS + 0.5 mM Bz-ATP

PBMC 10 μM (% control) | Structure (SMILES)
15.4 % control | C[C@H]1Cn2c(nnc2-c2cnccn2)C(=O)N1Cc1cccc(Cl)c1Cl [Example 13, (6S)-7-(2,3-Dichlorobenzyl)-6-methyl-3-pyrazin-2-yl-6,7-dihydro[1,2,4]triazolo[4,3-a]pyrazin-8(5H)-one]
13.4 % control | C[C@H]1Cn2c(nnc2-c2cnccn2)C(=O)N1Cc1cccc(C(F)(F)F)c1Cl [Example 16, (6S)-7-[2-Chloro-3-(trifluoromethyl)benzyl]-6-methyl-3-pyrazin-2-yl-6,7-dihydro[1,2,4]triazolo[4,3-a]pyrazin-8(5H)-one]

Same assay, conditions: Table 3 (additional runs); 1 μM compound

PBMC 1 μM (% control) | Structure (SMILES)
−0.6 % control | O=C1c2nnc(-c3cnccn3)n2CCN1Cc1cccc(C(F)(F)F)c1Cl [Example 3, 7-[2-Chloro-3-(trifluoromethyl)benzyl]-3-pyrazin-2-yl-6,7-dihydro[1,2,4]triazolo[4,3-a]pyrazin-8(5H)-one]
